Measured values from patent publication US8604061B2, “2-aminooxazolines as TAAR1 ligands” (Hoffmann-La Roche Inc., priority 2007, dated 2013).

What follows are molecules tested against TAAR1 (Mus musculus, UniProt Q923Y8) (assay: TAAR1 radioligand binding, membranes of stably transfected HEK293 cells (mouse)). Details: not given.
Procedure: For the construction of expression plasmids the coding sequences of human, rat and mouse TAAR 1 were amplified from genomic DNA essentially as described by Lindemann et al.. The Expand High Fidelity PCR System (Roche Diagnostics) was used with 1.5 mM Mg^2+ and purified PCR products were cloned into pCR2.1-TOPO cloning vector (Invitrogen) following the instructions of the manufacturer. PCR products were subcloned into the pIRESneo2 vector (BD Clontech, Palo Alto, Calif.), and expression vectors were sequence verified before introduction in cell lines.
HEK293 cells (ATCC #CRL-1573) were cultured essentially as described Lindemann et al. (2005). For the generation of stably transfected cell lines HEK293 cells were transfected with the pIRESneo2 expression plasmids containing the TAAR coding sequences (described above) with Lipofectamine 2000 (Invitrogen) according to the instructions of the manufacturer, and 24 hrs post transfection the culture medium was supplemented with 1 mg/ml G418 (Sigma, Buchs, Switzerland). After a culture period of about 10 d clones were isolated, expanded and tested for responsiveness to trace amines (all compounds purchased from Sigma) with the cAMP Biotrak Enzyme immunoassay (EIA) System (Amersham) following the non-acetylation EIA procedure provided by the manufacturer.
Cells at confluence were rinsed with ice-cold phosphate buffered saline without Ca^2+ and Mg^2+ containing 10 mM EDTA and pelleted by centrifugation at 1000 rpm for 5 min at 4° C. The pellet was then washed twice with ice-cold phosphate buffered saline and cell pellet was frozen immediately by immersion in liquid nitrogen and stored until use at −80° C. Cell pellet was then suspended in 20 ml HEPES-NaOH (20 mM), pH 7.4 containing 10 mM EDTA, and homogenized with a Polytron (PT 3000, Kinematica) at 10,000 rpm for 10 s. The homogenate was centrifuged at 48,000×g for 30 min at 4° C. and the pellet resuspended in 20 ml HEPES-NaOH (20 mM), pH 7.4 containing 0.1 mM EDTA (buffer A), and homogenized with a Polytron at 10,000 rpm for 10 s. The homogenate was then centrifuged at 48,000×g for 30 min at 4° C. and the pellet resuspended in 20 ml buffer A, and homogenized with a Polytron at 10,000 rpm for 10 s. Protein concentration was determined by the method of Pierce (Rockford, Ill.). The homogenate was then centrifuged at 48,000×g for 10 min at 4° C., resuspended in HEPES-NaOH (20 mM), pH 7.0 including MgCl2 (10 mM) and […] homogenized with a Polytron at 10,000 rpm for 10 s.
Binding assay was performed at 4° C. in a final volume of 1 ml, and with an incubation time of 30 min. […] Non-specific binding was defined as the amount of [^3H]-rac-2-(1,2,3,4-tetrahydro-1-naphthyl)-2-imidazoline bound in the presence of the appropriate unlabelled ligand (10 μM). Competing ligands were tested in a wide range of concentrations (10 pM-30 μM). […] Each experiment was performed in duplicate. All incubations were terminated by rapid filtration through UniFilter-96 plates (Packard Instrument Company) and glass filter GF/C, pre-soaked for at least 2 h in polyethylenimine 0.3%, and using a Filtermate 96 Cell Harvester (Packard Instrument Company). The tubes and filters were then washed 3 times with 1 ml aliquots of cold buffer B. Filters were not dried and soaked in Ultima gold (45 μl/well, Packard Instrument Company) and bound radioactivity was counted by a TopCount Microplate Scintillation Counter (Packard Instrument Company).
With `Cc1cccc(CC[C@H]2COC(N)=N2)c1` [Example 115, (S)-4-(2-m-Tolyl-ethyl)-4,5-dihydro-oxazol-2-ylamine] the Ki was 0.001 µM. Molecule `NC1=NC(c2ccc(F)cc2C(F)(F)F)CO1` (racemic) [Example 224, (RS)-4-(4-Fluoro-2-trifluoromethyl-phenyl)-4,5-dihydro-oxazol-2-ylamine] has a Ki of 0.0063 µM. Work on `NC1=NC(c2ccc(Br)cc2Cl)CO1` (racemic) [Example 291, (RS)-4-(4-Bromo-2-chloro-phenyl)-4,5-dihydro-oxazol-2-ylamine] yielded a Ki of 0.0008 µM. `CC1(c2cc(Cl)ccc2Cl)COC(N)=N1` (racemic) [Example 299, (RS)-4-(2,5-Dichloro-phenyl)-4-methyl-4,5-dihydro-oxazol-2-ylamine] showed a Ki of 0.0042 µM. With `NC1=N[C@@H](c2ccc(Cl)c(F)c2)CO1` [Example 174, (S)-4-(4-Chloro-3-fluoro-phenyl)-4,5-dihydro-oxazol-2-ylamine] the Ki was 0.0006 µM. `NC1=NC(c2ccc(Cl)cc2)CO1` (racemic) [Example 5, (RS)-4-(4-Chloro-phenyl)-4,5-dihydro-oxazol-2-ylamine] showed a Ki of 0.0021 µM. `NC1=N[C@@H](c2ccc(-c3ccccc3)cc2)CO1` [Example 21 (S), (S)-4-Biphenyl-4-yl-4,5-dihydro-oxazol-2-ylamine] gave a Ki of 0.0008 µM. `NC1=NC(c2cc(Cl)ccc2F)CO1` (racemic) [Example 19, (RS)-4-(5-Chloro-2-fluoro-phenyl)-4,5-dihydro-oxazol-2-ylamine] showed a Ki of 0.0018 µM. Work on `NC1=NC(c2ccccc2Br)CO1` (racemic) [Example 237, (RS)-4-(2-Bromo-phenyl)-4,5-dihydro-oxazol-2-ylamine] yielded a Ki of 0.0025 µM. `COc1ccc(C2COC(N)=N2)cc1C` (racemic) [Example 35, (RS)-4-(4-Methoxy-3-methyl-phenyl)-4,5-dihydro-oxazol-2-ylamine] gave a Ki of 0.0033 µM. Work on `NC1=NC(c2ccc(Cl)c(Cl)c2)CO1` (racemic) [Example 14, (RS)-4-(3,4-Dichlorophenyl)-4,5-dihydro-oxazol-2-ylamine] yielded a Ki of 0.0005 µM.

Same assay, conditions: mouse/rat; cell not marked 'rat'; radioligand [3H]-rac-2-(1,2,3,4-tetrahydro-1-naphthyl)-2-imidazoline, 4° C.; read-out: Ki (μM) mouse/rat
With `Cc1ccc([C@@]2(C)COC(N)=N2)cc1` [Example 161, (S)-4-Methyl-4-p-tolyl-4,5-dihydro-oxazol-2-ylamine] the Ki was 0.0062 µM. `C[C@]1(c2ccc(Br)cc2)COC(N)=N1` [Example 231, (S)-4-(4-Bromo-phenyl)-4-methyl-4,5-dihydro-oxazol-2-ylamine] showed a Ki of 0.0025 µM. For `C[C@]1(c2cc(F)c(F)c(F)c2)COC(N)=N1` [Example 306, (S)-4-Methyl-4-(3,4,5-trifluoro-phenyl)-4,5-dihydro-oxazol-2-ylamine], the Ki was 0.0027 µM. In the case of `Cc1cc(CC[C@H]2COC(N)=N2)ccn1` [Example 220, (S)-4-[2-(2-Methyl-pyridin-4-yl)-ethyl]-4,5-dihydro-oxazol-2-ylamine], the Ki is reported as 0.0084 µM. `CCC(C[C@H]1COC(N)=N1)c1ccc(Cl)cc1` (stereo partly drawn) [Example 162, (S)-4-[2-(4-Chloro-phenyl)-butyl]-4,5-dihydro-oxazol-2-ylamine] gave a Ki of 0.0025 µM. Work on `Cc1cc(F)ccc1[C@H]1COC(N)=N1` [Example 348, (+)-(S)-4-(4-Fluoro-2-methyl-phenyl)-4,5-dihydro-oxazol-2-ylamine] yielded a Ki of 0.0036 µM. Work on `CCC(C[C@H]1COC(N)=N1)c1ccccc1` (stereo partly drawn) [Example 163, (S)-4-(2-Phenyl-butyl)-4,5-dihydro-oxazol-2-ylamine] yielded a Ki of 0.0037 µM. With `NC1=N[C@@H](CCc2ccc(OC(F)(F)F)c(Cl)c2)CO1` [Example 150, (S)-4-[2-(3-Chloro-4-trifluoromethoxy-phenyl)-ethyl]-4,5-dihydro-oxazol-2-ylamine] the Ki was 0.0009 µM. `C[C@@H](C[C@H]1COC(N)=N1)c1ccccc1` [82 (S, S), (S)-4-((S)-2-phenyl-propyl)-4,5-dihydro-oxazol-2-ylamine] was tested, and the Ki was 0.008 µM. Work on `NC1=N[C@@H](CCc2cc(C(F)(F)F)ccc2C(F)(F)F)CO1` [Example 160, (S)-4-[2-(2,5-Bis-trifluoromethyl-phenyl)-ethyl]-4,5-dihydro-oxazol-2-ylamine] yielded a Ki of 0.0028 µM. For `NC1=N[C@@H](c2ccc(F)c(Cl)c2)CO1` [Example 172, (S)-4-(3-chloro-4-fluoro-phenyl)-4,5-dihydro-oxazol-2-ylamine], the Ki was 0.0019 µM. `CCC(C[C@H]1COC(N)=N1)c1ccc(Cl)c(Cl)c1` (stereo partly drawn) [Example 222, (S)-4-[2-(3,4-Dichloro-phenyl)-butyl]-4,5-dihydro-oxazol-2-ylamine] was tested, and the Ki was 0.0048 µM. In the case of `NC1=N[C@@H](CCc2cccc(C(F)(F)F)c2F)CO1` [Example 142, (S)-4-[2-(2-Fluoro-3-trifluoromethyl-phenyl)-ethyl]-4,5-dihydro-oxazol-2-ylamine], the Ki is reported as 0.0018 µM. Work on `NC1=N[C@@H](c2cccc(Cl)c2F)CO1` [Example 109, (S)-4-(3-Chloro-2-fluoro-phenyl)-4,5-dihydro-oxazol-2-ylamine] yielded a Ki of 0.0014 µM. In the case of `NC1=N[C@@H](c2ccc(Cl)cc2)CO1` [Example 169, (S)-4-(4-Chloro-phenyl)-4,5-dihydro-oxazol-2-ylamine], the Ki is reported as 0.0014 µM. With `NC1=N[C@@H](CC2(c3ccccc3)CC2)CO1` [Example 342, (S)-4-(1-Phenyl-cyclopropylmethyl)-4,5-dihydro-oxazol-2-ylamine] the Ki was 0.0045 µM. With `C[C@]1(c2ccc(C(F)(F)F)cc2)COC(N)=N1` [Example 147, (S)-4-Methyl-4-(4-trifluoromethyl-phenyl)-4,5-dihydro-oxazol-2-ylamine] the Ki was 0.0041 µM. Molecule `NC1=N[C@@H](CCc2ccc(Cl)cc2)CO1` [Example 256, (S)-4-[2-(4-Chloro-phenyl)-ethyl]-4,5-dihydro-oxazol-2-ylamine] has a Ki of 0.0006 µM. With `CCc1cc(Cl)ccc1[C@H]1COC(N)=N1` [Example 364, (+)-(S)-4-(4-Chloro-2-ethyl-phenyl)-4,5-dihydro-oxazol-2-ylamine] the Ki was 0.002 µM. `CC1(c2cc(F)c(F)c(F)c2)COC(N)=N1` (racemic) [Example 273, (RS)-4-Methyl-4-(3,4,5-trifluoro-phenyl)-4,5-dihydro-oxazol-2-ylamine] gave a Ki of 0.0095 µM. Work on `COc1ccc([C@H]2COC(N)=N2)cc1C` [Example 129, (S)-4-(4-Methoxy-3-methyl-phenyl)-4,5-dihydro-oxazol-2-ylamine] yielded a Ki of 0.0029 µM. Work on `NC1=N[C@@H](CSc2ccc(Cl)cc2)CO1` [Example 370, (R)-4-(4-Chloro-phenylsulfanylmethyl)-4,5-dihydro-oxazol-2-ylamine] yielded a Ki of 0.0037 µM. With `NC1=N[C@@H](c2ccc3ccccc3c2)CO1` [Example 103, (S)-4-Naphthalen-2-yl-4,5-dihydro-oxazol-2-ylamine] the Ki was 0.0004 µM. `COc1cc(CC[C@H]2COC(N)=N2)ccc1F` [Example 86, (S)-4-[2-(4-Fluoro-3-methoxy-phenyl)-ethyl]-4,5-dihydro-oxazol-2-ylamine] gave a Ki of 0.0008 µM. `NC1=N[C@@H](c2ccccc2C(F)(F)F)CO1` [Example 122, (S)-4-(2-Trifluoromethyl-phenyl)-4,5-dihydro-oxazol-2-ylamine] gave a Ki of 0.0034 µM. Work on `NC1=N[C@@H](c2ccc(Cl)cc2C2CC2)CO1` [Example 369, (+)-(S)-4-(4-Chloro-2-cyclopropyl-phenyl)-4,5-dihydro-oxazol-2-ylamine] yielded a Ki of 0.0009 µM. For `NC1=N[C@@H](CCc2ccc(F)c(C(F)(F)F)c2)CO1` [Example 133, (S)-4-[2-(4-Fluoro-3-trifluoromethyl-phenyl)-ethyl]-4,5-dihydro-oxazol-2-ylamine], the Ki was 0.0022 µM. Work on `NC1=N[C@@H](c2cccc(F)c2F)CO1` [Example 9, (S)-4-(2,3-Difluoro-phenyl)-4,5-dihydro-oxazol-2-ylamine] yielded a Ki of 0.0034 µM. `C[C@H](C[C@H]1COC(N)=N1)c1ccccc1` [82 (S, R), (S)-4-((R)-2-Phenyl-propyl)-4,5-dihydro-oxazol-2-ylamine] showed a Ki of 0.0016 µM.
